The values that follow come from ChEMBL document CHEMBL1156813 (J Med Chem, 2010).

Converted amounts (≈) assume the structure as drawn.

One data set deals with Cannabinoid receptor 1 (Homo sapiens, UniProt P21554). Put plainly: biochemical. Format: cell-based, CHO.
For the next data set, the target named is Cannabinoid receptor 2 (Homo sapiens, UniProt P34972). Put plainly: biochemical.
In another data set the target is Acetylcholinesterase (Homo sapiens, UniProt P22303). Put plainly: biochemical.
A short description of data set [1]: physchem. Particulars: phosphate buffered saline, pH 7.4.
Data set [2] in a line: physchem. To be noted: phosphate buffered saline, pH 2.

Cannabinoid receptor 1, sequence (P21554 whole entry): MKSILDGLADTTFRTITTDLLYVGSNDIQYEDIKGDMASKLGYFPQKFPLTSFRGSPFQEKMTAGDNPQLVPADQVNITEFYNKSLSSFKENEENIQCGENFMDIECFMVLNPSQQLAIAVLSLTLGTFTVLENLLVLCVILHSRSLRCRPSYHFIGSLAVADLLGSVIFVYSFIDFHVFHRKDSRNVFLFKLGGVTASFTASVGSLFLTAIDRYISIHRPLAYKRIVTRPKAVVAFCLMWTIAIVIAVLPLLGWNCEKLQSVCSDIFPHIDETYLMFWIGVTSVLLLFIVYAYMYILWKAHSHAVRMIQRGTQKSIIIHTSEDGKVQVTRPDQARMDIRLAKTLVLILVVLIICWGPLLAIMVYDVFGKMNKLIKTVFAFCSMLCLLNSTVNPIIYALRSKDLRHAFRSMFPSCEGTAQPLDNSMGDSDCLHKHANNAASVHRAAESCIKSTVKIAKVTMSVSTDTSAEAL
Cannabinoid receptor 2, sequence (P34972 whole entry): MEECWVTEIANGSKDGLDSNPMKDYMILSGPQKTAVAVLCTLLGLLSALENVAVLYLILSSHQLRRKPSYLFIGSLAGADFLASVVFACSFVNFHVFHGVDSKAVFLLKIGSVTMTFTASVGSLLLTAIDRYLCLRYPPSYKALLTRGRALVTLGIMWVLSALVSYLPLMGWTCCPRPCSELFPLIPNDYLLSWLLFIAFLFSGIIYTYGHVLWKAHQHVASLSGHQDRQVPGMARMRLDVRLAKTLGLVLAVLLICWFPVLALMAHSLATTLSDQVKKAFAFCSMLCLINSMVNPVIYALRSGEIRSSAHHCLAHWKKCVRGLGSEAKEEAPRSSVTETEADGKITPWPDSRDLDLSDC
Acetylcholinesterase, sequence (P22303 whole entry): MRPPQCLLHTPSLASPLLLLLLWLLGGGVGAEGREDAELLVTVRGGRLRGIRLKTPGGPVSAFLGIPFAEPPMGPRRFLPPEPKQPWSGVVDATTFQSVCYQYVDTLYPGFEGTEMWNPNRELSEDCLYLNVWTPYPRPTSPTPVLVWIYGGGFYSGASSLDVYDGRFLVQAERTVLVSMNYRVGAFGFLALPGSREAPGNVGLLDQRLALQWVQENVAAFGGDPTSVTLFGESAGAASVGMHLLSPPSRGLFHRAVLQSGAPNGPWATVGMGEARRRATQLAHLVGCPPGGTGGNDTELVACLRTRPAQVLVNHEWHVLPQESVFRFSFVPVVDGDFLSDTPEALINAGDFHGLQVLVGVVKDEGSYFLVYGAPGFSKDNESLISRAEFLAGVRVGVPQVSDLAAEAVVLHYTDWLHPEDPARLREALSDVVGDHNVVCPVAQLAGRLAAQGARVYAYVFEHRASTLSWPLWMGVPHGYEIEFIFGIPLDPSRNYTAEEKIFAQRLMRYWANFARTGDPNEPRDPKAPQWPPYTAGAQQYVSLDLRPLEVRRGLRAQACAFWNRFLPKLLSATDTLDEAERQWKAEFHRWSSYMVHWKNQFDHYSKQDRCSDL
Description for Acetylcholinesterase: Inhibition of human recombinant AChE expressed in HEK293 cells by photometry

By Ki is commonly meant the dissociation constant of the complex between target and ligand, obtained from inhibition or displacement. A low value points to tighter binding. Broadly, the IC50 is the concentration that inhibits the measured activity by half. Low values mean inhibition by little substance, high ones a need for much substance. On to `CCc1c(C(=O)NN2CCCCC2)nc(-c2ccccc2Cl)n1-c1ccc(Cl)cc1`, for which the Ki was 14 nM at Cannabinoid receptor 1 and more than 1000 nM at Cannabinoid receptor 2. The same compound came in with a half-inhibitory concentration (IC50) against Acetylcholinesterase of more than 31600 nM.

One may read the solubility (kinetic) as the concentration staying in solution when a stock, usually in DMSO, is diluted into the medium. Turning to `CN(C)CCN1CCN(/C(=N\S(=O)(=O)c2ccc(Cl)cc2)N2CC(c3ccccc3)C(c3ccc(Cl)cc3)=N2)CC1` (stereo unspecified), the Ki on Cannabinoid receptor 1 is 9.6 nM; at Cannabinoid receptor 2, more than 1000 nM. The values for the solubility (kinetic) in the data set “physchem [1]” and in the data set “physchem [2]” were 4 µM (≈ 2.45 µg/mL) and 65 µM (≈ 39.9 µg/mL), respectively.

`CN(C)CCCN/C(=N\S(=O)(=O)c1ccc(Cl)cc1)N1CC(c2ccccc2)C(c2ccc(Cl)cc2)=N1.Cl` (stereo unspecified): the inhibitory constant (Ki) was 3.1 nM on Cannabinoid receptor 1 and more than 1000 nM on Cannabinoid receptor 2. The solubility (kinetic) is 38 µM in the data set “physchem [1]” and more than 100 µM in the data set “physchem [2]”.

Take `O=S1(=O)CCN(/C(=N\S(=O)(=O)c2ccc(Cl)cc2)N2CC(c3ccccc3)C(c3ccc(Cl)cc3)=N2)CC1` (stereo unspecified): the Ki was determined as 31 nM on Cannabinoid receptor 1 and 571 nM at Cannabinoid receptor 2. The kinetic solubility is less than 3 µM in the data set “physchem [1]” and less than 7 µM in “physchem [2]”.

Regarding `CN1CCC(N/C(=N\S(=O)(=O)c2ccc(Cl)cc2)N2CC(c3ccccc3)C(c3ccc(Cl)cc3)=N2)CC1` (stereo unspecified), the Ki on Cannabinoid receptor 1 was 19 nM; on Cannabinoid receptor 2 it was more than 1000 nM. For the same compound, the values for the kinetic solubility in “physchem [1]” and in the data set “physchem [2]” were 11 µM (≈ 6.28 µg/mL) and 65 µM (≈ 37.1 µg/mL), respectively.

`O=S(=O)(N=C(NCCCCN1CCCC1)N1CC(c2ccccc2)C(c2ccc(Cl)cc2)=N1)c1ccc(Cl)cc1` (stereo unspecified): the results for the Ki at Cannabinoid receptor 1 and on Cannabinoid receptor 2 were 27 nM and more than 1000 nM, respectively. The kinetic solubility in the data set “physchem [1]” is 11 µM (≈ 6.58 µg/mL); in the data set “physchem [2]”, 38 µM (≈ 22.7 µg/mL).

Turning to `CNC(=NS(=O)(=O)c1ccc(Cl)cc1)N1CC(c2ccccc2)C(c2ccc(Cl)cc2)=N1` (stereo not drawn) [RAC-IBIPINABANT], the solubility (kinetic) in “physchem [1]” turned out to be 2 µM (≈ 0.975 µg/mL); in “physchem [2]”, 4 µM (≈ 1.95 µg/mL).

For `O=S(=O)(/N=C(\NCCCCNc1c2c(nc3ccccc13)CCCC2)N1CC(c2ccccc2)C(c2ccc(Cl)cc2)=N1)c1ccc(Cl)cc1` (stereo unspecified), the Ki on Cannabinoid receptor 1 is 42 nM; on Cannabinoid receptor 2 it was more than 1000 nM.

Regarding `CC(C)(O)CN=C(NS(=O)(=O)c1ccc(Cl)cc1)N1CC(c2ccccc2)C(c2ccc(Cl)cc2)=N1` (stereo unspecified), the inhibition constant Ki at Cannabinoid receptor 1 is 43 nM; on Cannabinoid receptor 2, more than 1000 nM. Moreover, the solubility (kinetic) in “physchem [1]” and in the data set “physchem [2]” was 4 µM (≈ 2.18 µg/mL) each time.
